According to patent US20070036874A1, “Compositions and methods for controlling glucose and lipid uptake from foods” (priority 2005, published 2007):

What was measured:
[1] = test system: sodium dependent glucose transporter; conditions: in vitro study; cited from earlier work
human pancreatic lipase = target: T1, human pancreatic lipase (Homo sapiens, UniProt P16233); test: lipase inhibition activity (USP units per mg); assay type: biochemical
T1 sequence (P16233 17-465): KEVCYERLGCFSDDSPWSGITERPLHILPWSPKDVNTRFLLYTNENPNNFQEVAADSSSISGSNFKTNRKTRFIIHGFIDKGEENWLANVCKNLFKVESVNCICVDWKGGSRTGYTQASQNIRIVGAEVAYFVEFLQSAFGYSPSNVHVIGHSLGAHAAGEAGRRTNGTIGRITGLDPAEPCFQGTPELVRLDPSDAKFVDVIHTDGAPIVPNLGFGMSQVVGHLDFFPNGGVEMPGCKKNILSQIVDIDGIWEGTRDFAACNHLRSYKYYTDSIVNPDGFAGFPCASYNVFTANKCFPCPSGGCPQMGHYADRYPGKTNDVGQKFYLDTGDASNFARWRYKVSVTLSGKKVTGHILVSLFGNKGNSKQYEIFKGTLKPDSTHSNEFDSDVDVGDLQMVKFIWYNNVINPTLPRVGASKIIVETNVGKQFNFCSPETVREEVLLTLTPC
Method: Polymerized catechins are prepared from fermented catechins. Tea catechins are incubated with polyphenol oxidase in a reaction tank for 60 to 120 minutes. The mixture is then extracted with ethyl acetate and dried. In particular embodiments, the extracts have at least 10 USP units human pancreatic lipase inhibition per mg.
LIPOTAME™, an exemplary polymerized catechin commercially available from NatureGen, has 11.62 USP units/mg of lipase inhibition activity, compared to 80 USP units/mg of lipase inhibition activity found in ORLISTAT®.

| SMILES | inhibition of the glucose uptake through incubated intestinal membranes [1] | lipase inhibition activity (human pancreatic lipase) |
| --- | --- | --- |
| O=C(O[C@@H]1Cc2c(O)cc(O)cc2O[C@@H]1c1ccc(O)c(O)c1)c1cc(O)c(O)c(O)c1 [Epicatechin gallate] | up to 50% | – |
| CCCCCCCCCCC[C@@H](C[C@@H]1OC(=O)[C@H]1CCCCCC)OC(=O)[C@H](CC(C)C)NC=O [ORLISTAT®, Orlistat] | – | 80 USP units/mg |
